Measurements as given in US20240100045A1, “EMULSION COMPOSITION AND USES THEREOF IN THE PREVENTION AND/OR TREATMENT OF SKIN DAMAGE CAUSED BY RADIATION” (TARIAN PHARMA, priority 2021, published 2024).
Like-named read-outs stand apart in the source and are kept apart here. Marks after values point to notes of the source that are not given here.

What was measured:
[1] = system: alpha2-adrenergic receptors; details: alpha2 vs alpha1; cited from earlier work
[2] = Description: (§1) […] were prepared by adding an excess of drug substance to various solvents and storing the samples in sealed containers for 24 hours at room temperature with continuous stirring.
(§2) The majority of samples were stirred by a magnetic stirrer; however, in the case of viscous samples (e.g for pure glycerine), samples were stirred using a rotary mixer. The speed of the rotary mixer was adjusted to ensure proper mixing of the sample and this generally involved slower rotation speeds.
(§3) The chromatographic conditions are described below:• Column: Sunfire C18 150 mm×4.6 mm, 3.5 μm • Column temperature: 40° C. • Injection volume: […] • Flow rate: 0.8m1/minute • UV Detection: 246 nm

[3] = conditions not specified, cited from earlier work
[4] = for saturation in the aqueous solvent phase of the primary formulation: prior to application
Description: as §1, §2, §3
Saturated solutions were prepared, incubated and measured as described in Example 1.

## Brc1c(NC2=NCCN2)ccc2nccnc12 [Brimonidine]
[1]
  selectivity for alpha2-adrenergic receptors over alpha1-adrenergic receptors: 1,000 times

## brimonidine tartrate
[2]; glycerine vs propylene glycol
  solubility in glycerine relative to propylene glycol: twice
[2]; in ARLASOLVE DMI, 24 hours at room temperature
  Max Solubility % (w/w): 0.01 % (w/w)
[2]; in GLUCAM E10, peak degradation observed after reinjection T + 72 hours
  Max Solubility % (w/w): 0.72* % (w/w)
[2]; in GLUCAM E20, peak degradation observed after reinjection T + 72 hours
  Max Solubility % (w/w): 0.88* % (w/w)
[2]; in Glycerine (GLY, 20 ml scintillation bottle)
  Max Solubility % (w/w): 1.61 % (w/w)
[2]; in Hexylene Glycol
  Max Solubility % (w/w): 0.01 % (w/w)
[2]; in Na Pyrrolidone Carboxylate (Ajidew L50)
  Max Solubility % (w/w): 0.06 % (w/w)
[2]; in PEG-400
  Max Solubility % (w/w): 0.10 % (w/w)
[2]; in Propylene Carbonate, peak degradation observed after reinjection T + 24 hours
  Max Solubility % (w/w): 0.01** % (w/w)
[2]; in Propylene glycol, measured value
  Max Solubility % (w/w): 0.56 % (w/w)
[2]; in TRANSCUTOL, 24 hours at room temperature
  Max Solubility % (w/w): 0.05 % (w/w)
[2]; in WATER, measured value
  Max Solubility % (w/w): 6.40 % (w/w)
[2]; propylene glycol vs glycerine
  solubility capacity of PG relative to glycerine: 50%
[3]; in Propylene glycol, literature value (Product Monograph ALPHAGAN)
  Max Solubility % (w/w): ~0.1**** % (w/w)
[3]; in WATER, literature value
  Max Solubility % (w/w): 3.4*** % (w/w)
[4]; PG/PEG-400/GLY/PVP (20:10:5:1) vs PG/PEG400/GLY/PVP/water (20:10:5:1:40)
  active agent solubilised by the non-volatile mixture compared to the aqueous mixture: approximately 22%
[4]; concentration of 1% brimonidine tartrate
  saturation in the aqueous solvent phase of the primary formulation: around 30%
[4]; concentration of 1.5% brimonidine tartrate
  saturation in the aqueous solvent phase of the primary formulation: ~50%
[4]; in PG/PEG-400 (20:10)
  Max Solubility % (w/w): 0.45 % (w/w)
[4]; in PG/PEG-400/GLY (20:10:5)
  Max Solubility % (w/w): 0.66 % (w/w)
[4]; in PG/PEG-400/GLY/(20:10:5:1)
  Max Solubility % (w/w): 0.72 % (w/w)
[4]; in PG/PEG-400/GLY/PVP/Water (20:10:5:1:40)
  Max Solubility % (w/w): 3.3 % (w/w)
[4]; in PG/PEG-400/PVP (20:10:1)
  Max Solubility % (w/w): 0.45 % (w/w)
